PubChem BioAssay AID1963958 (Molecular Pharmacology Branch, DTP, NCI, 2024)

Test system: MDA-MB-231 multicell spheroids, viability
Experiment: Anticancer human tumor MDA-MB-231 cell line growth inhibition [PI3K];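 note: spheroids exposed to agents for seven days before reading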;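 for viability, T/C: percent of vehicle control luminescence with DMSO treated spheroids as 100%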
Details: for IC50: curve of first compound; for viability, T/C: stronger effect = lower value
Method in brief: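 Spheroid viability read-out. Co-cultures contained the tumor line plus HUVEC and human MSCs. Each agent was paired with a PI3K inhibitor (inavolisib, alpelisib, duvelisib, copanlisib) across half-log dilutions starting at clinical Cmax, or at 10 microM when Cmax was unknown.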

Q: Which results are given for `CC(=O)c1c(C)c2cnc(Nc3ccc(N4CCNCC4)cn3)nc2n(C2CCCC2)c1=O` + COc1c(OCCCN2CCOCC2)ccc2c3n(c(=NC(=O)c4cnc(N)nc4)nc12)CCN3?
A: IC50 (second compound 0.00316 µM): 79.4 nM; IC50 (second compound 0.01 µM): 37.3 nM; IC50 (second compound 0.0316 µM): 10.4 nM; IC50 (second compound 0.1 µM): < 0.316 nM; IC50 (second compound 0.316 µM): < 0.316 nM; IC50 (second compound 1 µM): < 0.316 nM; viability, T/C (second compound 0.00316 µM, first compound 0.000316 µM): 96.5%; viability, T/C (second compound 0.00316 µM, first compound 0.001 µM): 94.8%; viability, T/C (second compound 0.00316 µM, first compound 0.00316 µM): 90.4%; viability, T/C (second compound 0.00316 µM, first compound 0.01 µM): 85.2%; viability, T/C (second compound 0.00316 µM, first compound 0.0316 µM): 69.5%; viability, T/C (second compound 0.00316 µM, first compound 0.1 µM): 45%; viability, T/C (second compound 0.01 µM, first compound 0.000316 µM): 80.6%; viability, T/C (second compound 0.01 µM, first compound 0.001 µM): 79.9%; viability, T/C (second compound 0.01 µM, first compound 0.00316 µM): 73.7%; viability, T/C (second compound 0.01 µM, first compound 0.01 µM): 62.5%; viability, T/C (second compound 0.01 µM, first compound 0.0316 µM): 53.6%; viability, T/C (second compound 0.01 µM, first compound 0.1 µM): 35.9%; viability, T/C (second compound 0.0316 µM, first compound 0.000316 µM): 58.4%; viability, T/C (second compound 0.0316 µM, first compound 0.001 µM): 59.7%; viability, T/C (second compound 0.0316 µM, first compound 0.00316 µM): 54.2%; viability, T/C (second compound 0.0316 µM, first compound 0.01 µM): 50.5%; viability, T/C (second compound 0.0316 µM, first compound 0.0316 µM): 41.3%; viability, T/C (second compound 0.0316 µM, first compound 0.1 µM): 26.7%; viability, T/C (second compound 0.1 µM, first compound 0.000316 µM): 46.9%; viability, T/C (second compound 0.1 µM, first compound 0.001 µM): 44.9%; viability, T/C (second compound 0.1 µM, first compound 0.00316 µM): 41.3%; viability, T/C (second compound 0.1 µM, first compound 0.01 µM): 39.2%; viability, T/C (second compound 0.1 µM, first compound 0.0316 µM): 33.1%; viability, T/C (second compound 0.1 µM, first compound 0.1 µM): 21.1%; viability, T/C (second compound 0.316 µM, first compound 0.000316 µM): 33.4%; viability, T/C (second compound 0.316 µM, first compound 0.001 µM): 31%; viability, T/C (second compound 0.316 µM, first compound 0.00316 µM): 27.9%; viability, T/C (second compound 0.316 µM, first compound 0.01 µM): 27.3%; viability, T/C (second compound 0.316 µM, first compound 0.0316 µM): 20.4%; viability, T/C (second compound 0.316 µM, first compound 0.1 µM): 16.4%; viability, T/C (second compound 1 µM, first compound 0.000316 µM): 25%; viability, T/C (second compound 1 µM, first compound 0.001 µM): 25%; viability, T/C (second compound 1 µM, first compound 0.00316 µM): 23.5%; viability, T/C (second compound 1 µM, first compound 0.01 µM): 24%; viability, T/C (second compound 1 µM, first compound 0.0316 µM): 21.6%; viability, T/C (second compound 1 µM, first compound 0.1 µM): 19.6%
